Among the data in ChEMBL document CHEMBL1146398, “Cardenolides from the methanolic extract of Nerium oleander leaves possessing central nervous system depressant activity in mice” (J Nat Prod, 1997) are Activity values, retold here.

Common to all, as to type: functional, organism-based
Test [1] concerns Mus musculus. The experiment in a line: Central nervous system depression activity in mouse assessed as decrease in touch response at 50 mg/kg, ip. On the set-up: dose 50 mg/kg.
Test [2] has as its system Mus musculus. In words: Central nervous system depression activity in mouse assessed as staggering gait at 50 mg/kg, ip after 40 mins. On the set-up: dose 50 mg/kg.
Test [3] has as its system Mus musculus. In words: Central nervous system depression activity in mouse assessed as decrease in locomotor activity at 25 mg/kg, ip. Also on record: dose 25 mg/kg.
The test system of test [4] is Mus musculus. The experiment in a line: Central nervous system depression activity in mouse assessed as decrease in touch response at 25 mg/kg, ip. On the set-up: dose 25 mg/kg.
Test [5] concerns Mus musculus. The experiment in a line: Central nervous system depression activity in mouse assessed as decrease in locomotor activity at 50 mg/kg, ip. On the set-up: dose 50 mg/kg.
Test [6] relates to Mus musculus. In words: Central nervous system depression activity in mouse assessed as staggering gait at 25 mg/kg, ip. Also on record: dose 25 mg/kg.
Test [7] has as its system Mus musculus. In words: Central nervous system depression activity in mouse assessed as ptosis at 25 mg/kg, ip. Also on record: dose 25 mg/kg.
The subject of test [8] is Mus musculus. The experiment in a line: Central nervous system depression activity in mouse assessed as passivity at 25 mg/kg, ip. On the set-up: dose 25 mg/kg.
Test [9] deals with Mus musculus. The experiment in a line: Central nervous system depression activity in mouse assessed as staggering gait at 25 mg/kg, ip after 30 mins. On the set-up: dose 25 mg/kg.
The test system of test [10] is Mus musculus. In words: Central nervous system depression activity in mouse assessed as fast respiration at 50 mg/kg, ip after 40 mins. Also on record: dose 50 mg/kg.
Test [11] relates to Mus musculus. The experiment in a line: Central nervous system depression activity in mouse assessed as tremors on movement at 50 mg/kg, ip after 60 mins. On the set-up: dose 50 mg/kg.
Test [12] deals with Mus musculus. In words: Central nervous system depression activity in mouse assessed as abduction of limbs at 50 mg/kg, ip after 60 mins. Also on record: dose 50 mg/kg.
The subject of test [13] is Mus musculus. The experiment in a line: Central nervous system depression activity in mouse assessed as induction of passivity at 50 mg/kg, ip after 60 mins. On the set-up: dose 50 mg/kg.
Test [14] deals with Mus musculus. The experiment in a line: Central nervous system depression activity in mouse assessed as decrease in body and limb tone at 50 mg/kg, ip after 60 mins. Also on record: dose 50 mg/kg.

Calls of active or inactive are those of the source. No cut-off for these calls is given here.

Regarding `CO[C@H]1[C@H](O[C@H]2CC[C@@]3(C)[C@H](CC[C@@H]4[C@@H]3CC[C@]3(C)C(C5=CC(=O)OC5)=CC[C@]43O)C2)O[C@H](C)[C@H](O)[C@@H]1OC`, the result with Mus musculus [1], in the test with Mus musculus [2], with Mus musculus [3] and in the test with Mus musculus [5] was Active. In the test on Mus musculus [4], the result was inactive.
`CO[C@H]1[C@@H](O)[C@@H](C)O[C@@H](O[C@H]2CC[C@@]3(C)[C@H](CC[C@@H]4[C@@H]3CC[C@]3(C)[C@@H](C5=CC(=O)OC5)CC[C@]43O)C2)[C@@H]1O`: the outcome with Mus musculus [3], in the test with Mus musculus [6], in the test with Mus musculus [7], in the test with Mus musculus [4], in the test with Mus musculus [5] and with Mus musculus [8] was Active.
As to `CO[C@H]1[C@@H](O)[C@@H](C)O[C@@H](O[C@H]2CC[C@@]3(C)[C@H](CC[C@@H]4[C@@H]3CC[C@]3(C)[C@@H](C5=CC(=O)OC5)[C@@H](OC(C)=O)C[C@]43O)C2)[C@@H]1O`, the outcome in the test on Mus musculus [9], in the test with Mus musculus [10], in the test with Mus musculus [11], with Mus musculus [5], in the test on Mus musculus [12] and with Mus musculus [13] was Active. In addition, the result with Mus musculus [14] was Active. In the test with Mus musculus [4], the result was inactive.
